According to US20180237449A1, “FUMAGILLOL SPIROCYCLIC COMPOUNDS AND FUSED BICYCLIC COMPOUNDS AND METHODS OF MAKING AND USING SAME” (Zafgen, Inc., priority 2015, published 2018):
Where a name gives a salt, the structure may show the parent alone.

Experiments:
[1] = test system: human fibrosarcoma cell line HT-1080; assay: HT-1080 cell assay (CellTiter-Glo, 72 hours); format: cell-based; details: 72 hours incubation
Procedure: The human fibrosarcoma cell line HT-1080 were grown to almost complete confluence in T75 tissue culture flasks in preparation for the experiment. The cells were trypsinised and re-suspended in complete medium using DMEM plus 9% FBS including penicillin/streptomycin supplements. 500 cells in a total volume of 25 μl were seeded into black walled 384 well plates and returned to a CO2 incubator over-night. Compounds and standards were prepared at 333.3× actual test concentration in neat DMSO. 10 point dose response curves of test compounds were generated by 1:3 serial dilutions, 2 μl of DMSO stock was transferred to 109 μl complete medium. This was further diluted 1:6 in complete medium, with 5 μl of the resulting solution added to the incubated 384 well plate. […] For experimental blanks at the start of the experiment, CellTiter-Glo was added to a satellite plate of cells (identical to the experimental plate), when adding compounds on Day 1. The average of these wells is used as the blanks in the calculation template. Following 72 hours incubation with compounds and standard the plate was removed from the incubator and allowed to equilibrate at room temperature for at least 30 minutes. CellTiter-Glo was thawed and subsequently 30 μl added to columns 2-23. The plate was covered with a clear Perkin Elmer Topseal and placed on a plate shaker for 10-20 mins to aid homogenous mixing. Luminescence per well was determined using an EnVision 2104 Multilabel Reader (PerkinElmer) or other suitable reader. The compound blank value recorded on Day 1 is subtracted from all other data. Data is expressed as % inhibition of mean DMSO control response and the EC50 is calculated as 50% maximum response. The EC50 values are determined from a sigmoidal 4 parameter curve fit using XLfit in conjunction with Activity Base (IDBS; Guildford, Surrey, UK). The bottom of the curve is fixed to 0% inhibition.

[2] = test system: pregnant Sprague Dawley rats; assay: Rat embryofetal development study; format: in vivo; details: 6 mpk sc once every three days, Gestation Days 6-18
Procedure: The objective of this study design was to evaluate the potential effects of disclosed compounds on embryo/fetal development when given subcutaneously to pregnant rats once every three days during the critical period of organogenesis (Gestation Days 6-18). Female, Sprague Dawley rats, approximately 10 weeks of age, time bred, were ordered from a certified vendor and housed individually housed in stainless steel cages suspended over flush pans, on a 12-hour light-dark cycle (0700-1900) at 20-26° C. and 30-70% humidity. Rats were fed a standard rodent chow and provided water ad libitum. Rats were received and housed in the facility for a period of approximately 1 to 2 days.
Compounds were formulated using 100% DMSO mixed in Sterile Water for Injection, resulting in 2% DMSO solution in water. If necessary, due to limited solubility of a test article, a higher percentage of DMSO solution in water was used. Groups of 8 mated and presumed pregnant female rats were given subcutaneous doses of vehicle or test article, once every three days, beginning on Gestation Day 6 and ending on Gestation Day 18 (Days 6, 9, 12, 15, and 18), maintained two more days, and then euthanized and necropsied on Gestation Day 20. Body weights was recorded for all animals on Gestation Days 5 (purpose of randomization), 6, 9, 12, 15, 18, and 20 (scheduled euthanasia). Food consumption by weight was recorded on Gestation Days 6, 9, 12, 15, 18, and 20 (scheduled termination).
At necropsy, the dams were examined visually for external abnormalities including palpable masses. The abdominal, thoracic, and cranial cavities and their contents were examined for abnormalities and findings will be recorded. The reproductive tract were examined to record the number of ovarian corpora lutea, the number and location of uterine implantation sites noting the position of the cervix, and the number of early resorptions, late resorptions, live fetuses, and dead fetuses. For dead fetuses and late resorptions, crown-to-rump length and weight were recorded, if possible, and the fetus was discarded. For viable fetuses, weight, sex, and grossly visible external abnormalities were recorded.

DIO Sprague Dawley rats = assay: 11 day rat DIO model, weight loss vs. vehicle; format: in vivo; details: 0.3 mpk sc once a day for 11 days
From the text: The objective of this study design is to investigate the efficacy of disclosed compounds in an 11 day rat DIO model used to screen compounds for pharmacologic efficacy on endpoints related to obesity and metabolism. Effects on body weight, food intake, hematology and blood chemistries were the primary readouts of this study design. Male Sprague Dawley rats, approximately 8 weeks of age, were ordered from a certified vendor and housed on irradiated corncob bedding in micro-isolator cages, on a 12-hour light-dark cycle (0700-1900) at 68-74° F. and 30-70% humidity. Rats were fed Research Diets D12451 (45% High Fat) and provided water ad libitum. Rats were received and housed in the facility for at least two or three weeks prior to start of test article administration. On Day −4 or −3, rats were randomized into study groups based on body weight and body weights were continued to be recorded daily for the duration of the study. Daily food intake was assessed starting on Study Day −2 by weighing the hopper including the food to avoid loss of food in transfer.
Compounds were formulated into a 100% DMSO stock (at 9 mg/mL) prior to the start, and further diluted into the target working concentration using the vehicle of 10% DMSO in water. […] After sacrifice, whole blood was collected and analyzed for hematology and blood chemistry parameters. […]

[3] = test system: Diet Induced Obese (DIO) C57BL/6 mice; assay: 10 day DIO mouse model, weight loss vs. vehicle; format: in vivo; details: 0.3 mpk sc once a day for 10 days
From the text: The objective of this study design was to investigate the efficacy of disclosed compounds in a 10 day DIO mouse model. Effects on body weight, food intake, hematology and blood chemistry were the primary readouts of this study design. Male, Diet Induced Obese (DIO) C57BL/6 mice, 19-21 weeks of age (13-15 weeks on high fat diet) were ordered from a certified vendor and upon receipt were housed on irradiated corncob bedding in micro-isolator cages on a 12-hour light-dark cycle (0700-1900) at 68-74° F. and 30-70% humidity. Mice were fed Research Diets D12492 (60% Kcal fat, 20% Kcal carbohydrate and 20% protein) and provided water ad libitum. DIO mice were received and housed in the facility for approximately two weeks prior to the start of test article administration. On Day −4 or −3, mice were randomized into study groups based on body weight and body weights were continued to be recorded daily for the duration of the study. Daily food intake was assessed starting on Study Day −2 by weighing of the food with hopper together to avoid loss of food in transfer.
Compounds were formulated into a 100% DMSO stock (at 9 mg/mL) prior to the start, and further diluted into the target working concentration using the vehicle of 10% DMSO in water. Prior to test article administration, starting on Day −3 a dosing acclimation occurred with all animals receiving a subcutaneous injection of vehicle (10% DMSO) only for 3 days. Starting on Day 1, test compounds or vehicle were administered based on individual body weight, subcutaneously, once a day for 10 days. All mice were sacrificed on Day 11, 24 hours following the final dosing on Day 10. After sacrifice, whole blood was collected and analyzed for hematology and blood chemistry parameters.
Compounds were tested for weight loss vs. vehicle at 0.3 and 1.0 mpk sc (mg per kg animal weight delivered subcutaneously), and the results are shown in Table 2 below.

| Compound | EC50 [1] | Rat Embryofetal @6 mpk [2] | weight loss vs. vehicle, Rat @ 0.3 mpk sc (%) (DIO Sprague Dawley rats) | weight loss vs. vehicle, Mouse @ 0.3 mpk sc (%) [3] |
| --- | --- | --- | --- | --- |
| CO[C@@H]1[C@H](OC(=O)N2CC3(COC3)C2)CC[C@]2(CO2)[C@H]1[C@@]1(C)O[C@@H]1CC=C(C)C [Example 2, (3R,4S,5S,6R)-5-methoxy-4-((2R,3R)-2-methyl-3-(3-methylbut-2-enyl)oxiran-2-yl)-1-oxaspiro[2.5]octan-6-yl 2-oxa-6-azaspiro[3.3]heptane-6-carboxylate] | < 0.5 nM | Positive |  |  |
| CO[C@@H]1[C@H](OC(=O)N2CCC3(CC2)COC3)CC[C@]2(CO2)[C@H]1[C@@]1(C)O[C@@H]1CC=C(C)C [Example 5, (3R,4S,5S,6R)-5-methoxy-4-((2R,3R)-2-methyl-3-(3-methylbut-2-enyl)oxiran-2-yl)-1-oxaspiro[2.5]octan-6-yl 2-oxa-7-azaspiro[3.5]nonane-7-carboxylate] |  |  | 6.6% | 16.7% |
| CO[C@@H]1[C@H](OC(=O)N2CC3(CCN(CC(F)F)CC3)C2)CC[C@]2(CO2)[C@H]1[C@@]1(C)O[C@@H]1CC=C(C)C [Example 9, (3R,4S,5S,6R)-5-methoxy-4-((2R,3R)-2-methyl-3-(3-methylbut-2-enyl)oxiran-2-yl)-1-oxaspiro[2.5]octan-6-yl 7-(2,2-difluoroethyl)-2,7-diazaspiro[3.5]nonane-2-carboxylate formate] | < 0.5 nM | Positive |  |  |
| CO[C@@H]1[C@H](OC(=O)NC2CC3(CCN(C)C3)C2)CC[C@]2(CO2)[C@H]1[C@@]1(C)O[C@@H]1CC=C(C)C (stereo partly drawn) [Example 11, (3R,4S,5S,6R)-5-methoxy-4-((2R,3R)-2-methyl-3-(3-methylbut-2-enyl)oxiran-2-yl)-1-oxaspiro[2.5]octan-6-yl 6-methyl-6-azaspiro[3.4]octan-2-ylcarbamate formate] |  |  |  | 6% |
| CO[C@@H]1[C@H](OC(=O)N2CC3C(C2)C3(F)F)CC[C@]2(CO2)[C@H]1[C@@]1(C)O[C@@H]1CC=C(C)C (stereo partly drawn) [Example 22, (3R,4S,5S,6R)-5-methoxy-4-((2R,3R)-2-methyl-3-(3-methylbut-2-enyl)oxiran-2-yl)-1-oxaspiro[2.5]octan-6-yl 6,6-difluoro-3-azabicyclo[3.1.0]hexane-3-carboxylate] | < 0.5 nM | Negative |  |  |
| CO[C@@H]1[C@H](OC(=O)N2CC3(C2)CS(=O)(=O)C3)CC[C@]2(CO2)[C@H]1[C@@]1(C)O[C@@H]1CC=C(C)C [Example 23, (3R,4S,5S,6R)-5-methoxy-4-((2R,3R)-2-methyl-3-(3-methylbut-2-enyl)oxiran-2-yl)-1-oxaspiro[2.5]octan-6-yl 2-thia-6-azaspiro[3.3]heptane 2,2-dioxide-6-carboxylate] |  |  |  | 2% |
| CO[C@@H]1[C@H](OC(=O)N2CC3(CNC(=O)C3)C2)CC[C@]2(CO2)[C@H]1[C@@]1(C)O[C@@H]1CC=C(C)C [Example 25, (3R,4S,5S,6R)-5-methoxy-4-((2R,3R)-2-methyl-3-(3-methylbut-2-enyl)oxiran-2-yl)-1-oxaspiro[2.5]octan-6-yl 7-oxo-2,6-diazaspiro[3.4]octane-2-carboxylate] |  |  |  | 2% |
| CO[C@@H]1[C@H](OC(=O)N2CCC3(CCOCC3)C2)CC[C@]2(CO2)[C@H]1[C@@]1(C)O[C@@H]1CC=C(C)C [Example 27, (3R,4S,5S,6R)-5-methoxy-4-((2R,3R)-2-methyl-3-(3-methylbut-2-enyl)oxiran-2-yl)-1-oxaspiro[2.5]octan-6-yl 8-oxa-2-azaspiro[4.5]decane-2-carboxylate] | < 0.5 nM | Positive |  |  |
| CO[C@@H]1[C@H](OC(=O)N2CCC3(CCN(C)CC3)CC2)CC[C@]2(CO2)[C@H]1[C@@]1(C)O[C@@H]1CC=C(C)C [Example 28, (3R,4S,5S,6R)-5-methoxy-4-((2R,3R)-2-methyl-3-(3-methylbut-2-enyl)oxiran-2-yl)-1-oxaspiro[2.5]octan-6-yl 9-methyl-3,9-diazaspiro[5.5]undecane-3-carboxylate] |  |  |  | 8% |
| CO[C@@H]1[C@H](OC(=O)N2C[C@@H]3[C@H](C2)[C@H]3C(=O)NCCN2CCOCC2)CC[C@]2(CO2)[C@H]1[C@@]1(C)O[C@@H]1CC=C(C)C [Example 37, (1R,5S,6R)-(3R,4S,5S,6R)-5-methoxy-4-((2R,3R)-2-methyl-3-(3-methylbut-2-en-1-yl)oxiran-2-yl)-1-oxaspiro[2.5]octan-6-yl 6-((2-morpholinoethyl)carbamoyl)-3-azabicyclo[3.1.0]hexane-3-carboxylate] |  |  |  | 4.3% |
| CO[C@@H]1[C@H](OC(=O)/C=C/c2ccc(OCCN(C)C)cc2)CC[C@]2(CO2)[C@H]1[C@@]1(C)O[C@@H]1CC=C(C)C [compound A, [(3R,6R,7S,8S)-7-methoxy-8-[(2R,3R)-2-methyl-3-(3-methylbut-2-enyl)oxiran-2-yl]-2-oxaspiro[2.5]octan-6-yl] (E)-3-[4-[2-(dimethylamino)ethoxy]phenyl]prop-2-enoate, reference compound] |  | Positive |  |  |
